From patent publication US8410170B2, “Use of isothiocyanates compounds in treating prostatic diseases and skin cancer” (Wuxi JC Pharmaceutical Technology Co., Ltd., priority 2005, dated 2013)

Tests used:
PSA = assay: Western blot to detect PSA in LNCaP cells; assay type: cell-based, human; conditions: 24 hrs
Protocol: (§1) The cells were harvested, washed and total cellular proteins were extracted as described previously (as Example 2). Fifty μg proteins were then subjected to electrophoresis in SDS-PAGE, electro-transferred to nitrocellulose filters, and immunoblotted initially with antibodies against AR, Sp1, and PSA. The same membranes were stripped and re-probed with β-actin for loading control. The result was recorded by ECL films.

[1] = test system: human prostate cancer cell line LNCaP; assay: MTT and SRB cell growth assay, LNCaP; assay type: cell-based; conditions: LNCaP; for IC50: Homo sapiens, MTT and SRB, read-out: IC50, growth inhibition
Protocol: MTT and SRB method as described in the reference (Kreis, Budman et al. 1997). Briefly, human prostate cancer cells grown exponentially were aliquoted into 96-well plates at a density of 5000 cells/200 μl per well. Twenty-four hrs after the incubation, the cells were exposed for three or seven days to serial dilutions of indicated isothiocyanate. After the incubation, 100 μl of the medium was removed from each of the wells and 50 μl solution of 3-(4,5-dimethyl-thiazol-2-yl)-2,5-diphenyltetrazolium bromide (MTT) was added, the cells were incubated for an additional 4 hrs and then 200 μl of 0.04 N HCl-isopropanol was added to each well to dissolve the black formazan precipitates. The absorbance was measured at wavelength 540 nm. For SRB method, remove the medium after 72 hrs. The cells on 96-well dishes were fixed with 10% trichloride acetic acid for 1 hr, air-dried for 24 hrs. The cells were then stained with 50 μl of SRB (sulforhodamine B) for […]. After extensive washes with 1% acetic acid for 5 times, air-dried, the purple protein-SRB complex was dissolved in 200 μl 10 mM Tris-HCl buffer (pH 10.0), and the absorbance was measured at the wavelength of 540 and 630 nm. The percent of cell survival (T/C%) were calculated based on the results of test groups to that of the control group. The semi-exponential curves of the percent of cell survival (T/C%) to the drug concentrations (FIG. 8) and IC50 were obtained by using Sigma-plot program.

GSTP1 = assay: Western blot to detect GSTP1 protein in LNCaP cells; assay type: cell-based, human; conditions: LNCaP cells exposed 24 hrs
Protocol: Western blot to detect GSTP1 protein (FIG. 1): […] The cells were harvested, washed and total cellular proteins were extracted as described previously (Wang, […], et al. […] Cancer Res 61(20): 7544-51, 2001). Fifty μg cellular extracts were separated on a SDS-PAGE, electro-transferred to nitrocellulose filters, and immunoblotted initially with antibodies against GSTP1. The same membranes were stripped and re-probed with β-actin for loading control. The result was recorded by ECL films.

Sp1 = assay: Western blot to detect Sp1 in LNCaP cells; assay type: cell-based, human; conditions: 24 hrs
Protocol: as §1

transcription factor Sp1 = assay: Sp1-luc luciferase activity assay in transfected LNCaP AD cells; assay type: cell-based, human; conditions: 24 hrs
Source text: The Sp1-luc and mtSp1-luc contain three tandem repeats of consensus Sp1 sites driving the luciferase gene and its mutant. […] Effectene transfection reagent and luciferase assay kit were acquired from Qiagen (Valencia, Calif., USA) and Promega (Madison, Wis., USA). Reagents for protein electrophoresis were purchased from Bio-Rad company (USA). The other chemicals were purchased from Sigma (St. Louis, Mo.) otherwise as indicated. […] (Gao, M., Ossowski, L., and Ferrari, A. C. Activation of Rb and decline in androgen receptor protein precede retinoic acid-induced apoptosis in androgen-dependent LNCaP cells and their androgen-independent derivative. J Cell Physiol, 179: 336-346, 1999). The AD and AI cells were maintained in RPMI-1640 with 10% fetal bovine serum (FBS) and charcoal stripped fetal bovine serum, penicillin-streptomycin for incubation at 5% CO2 and 37° C. respectively. […] After incubation for 24 hrs at 5% CO2 and 37° C., the cells were transfected with 1 μg/dish of SP1-luciferase gene (Sp1-luc), or its mutant mtSp1-luc using Effectene (Qiagen, Valencia, Calif.) as the transfection reagent. […] The cells were collected, washed, lysed, and the lysates were used for luciferase activity assay using Promega luciferase assay system.

LNCaP AD = assay: MTT growth inhibition, hormone dependent LNCaP AD; assay type: cell-based; conditions: Homo sapiens, 168 h; LNCaP AD, seven days, MTT; read-out: IC50, growth inhibition
Source text: (§2) The human prostate cancer cell line LNCaP AD was purchased from the American Type Culture Collection. LNCaP AI cell line was derived from LNCaP cells using a method described previously by Gao et al. (Gao, M., Ossowski, L., and Ferrari, A. C. Activation of Rb and decline in androgen receptor protein precede retinoic acid-induced apoptosis in androgen-dependent LNCaP cells and their androgen-independent derivative. J Cell Physiol, 179: 336-346, 1999). The AD and AI cells were maintained in RPMI-1640 with 10% fetal bovine serum (FBS) and charcoal stripped fetal bovine serum, penicillin-streptomycin for incubation at 5% CO2 and 37° C. respectively.
(§3) MTT: MTT and SRB method were used to determine the effects of various isothiocyanates on cell growth as described previously (Kreis, Budman et al, 1997). Briefly, human prostate cancer cell line LNCaP grown exponentially were aliquoted into 96-well plates at a density of 2500 cells/200 μl per well. Twenty-four hrs after the incubation, the cells were exposed for seven days to serial dilutions of indicated isothiocyanate or paclitaxel. […] The absorbance was measured at wavelength 540 nm. The percent of cell survival (T/C%) were calculated based on the results of test groups to that of the control group. […]

LNCaP AI = assay: MTT growth inhibition, hormone independent LNCaP AI; assay type: cell-based; conditions: Homo sapiens, 168 h; LNCaP AI, seven days, MTT; read-out: IC50, growth inhibition
Source text: as §2, §3

IC50 (LNCaP AD) [nM] | IC50 (LNCaP AI) [nM] | Structure (SMILES) | expression of PSA (Western blot) (PSA) | Percent of Cell Survival (T/C %) ([1]; 0.0390 μM) [%] | Percent of Cell Survival (T/C %) ([1]; 0.0780 μM) [%] | Percent of Cell Survival (T/C %) ([1]; 0.1562 μM) [%] | Percent of Cell Survival (T/C %) ([1]; 0.3125 μM) [%] | Percent of Cell Survival (T/C %) ([1]; 0.6250 μM) [%] | Percent of Cell Survival (T/C %) ([1]; 1.2500 μM) [%] | Percent of Cell Survival (T/C %) ([1]; 2.5000 μM) [%] | Percent of Cell Survival (T/C %) ([1]; 5.0000 μM) [%] | Percent of Cell Survival (T/C %) ([1]; 10.0000 μM) [%] | Percent of Cell Survival (T/C %) ([1]; 20.0000 μM) [%] | IC50 [1] [nM] | expression of GSTP1 (Western blot) (GSTP1) | expression of Sp1 (Western blot) (Sp1) | luciferase activity of Sp1-luc transfected gene (transcription factor Sp1)
 |  | C=CCN=C=S [AITC, allyl isothiocyanate] | minimal activities | 98.84 | 98.92 | 98.26 | 98.55 | 97.10 | 99.49 | 83.95 | 47.60 | 41.01 | 38.69 | ~10000 | effectively induce | minimal activities | 
 |  | S=C=NCc1ccccc1 [BITC, benzyl isothiocyanate] | significantly inhibited | 94.09 | 95.64 | 97.91 | 95.82 | 71.25 | 27.95 | 14.83 | 5.07 | 0.88 | 0.94 | 800 to 1500 | effectively induce | significantly inhibited | 
 |  | O=S(=O)(O)c1ccc(N=C=S)cc1 [SPITC, 4-sulfophenylisothiocyanate] | no effect | 99.54 | 101.43 | 101.43 | 99.66 | 98.26 | 101.56 | 104.37 | 100.60 | 101.33 | 99.88 |  | effectively induce | no effect | 
 |  | CC(/C=C/C(=O)NO)=C\[C@@H](C)C(=O)c1ccc(N(C)C)cc1 [TSA, trichostatin A, reference compound] |  |  |  |  |  |  |  |  |  |  |  |  |  |  | significantly stimulated
0.01 | 0.6 | CC(=O)O[C@H]1C(=O)[C@@]2(C)[C@H]([C@H](OC(=O)c3ccccc3)[C@]3(O)C[C@H](OC(=O)[C@H](O)[C@@H](NC(=O)c4ccccc4)c4ccccc4)C(C)=C1C3(C)C)[C@]1(OC(C)=O)CO[C@@H]1C[C@@H]2O [paclitaxel, reference compound] |  |  |  |  |  |  |  |  |  |  |  |  |  |  | 
